# Reference: patent US10087427B2, “Glycosyltransferase gene and use thereof” (SUNTORY HOLDINGS LIMITED, priority 2014, dated 2018)
# System: NmGT22 protein
# Assay: Enzyme activity of purified His-tag NmGT22 protein on flavonoid substrates (HPLC)
# Type: biochemical, Nemophila menziesii
# Conditions: NmGT22 protein solution, UDP-glucose, 2 mM substrate, same reaction conditions
# Procedure: E. coli strain BL2 introduced with pET SUMO-NmGT22 described in Example 5 was cultured using the Overnight Express Auto-induction System 1 (Novagen Inc.) in accordance with the manufacturer's recommended protocol. The transformed E. coli were cultured in 8 ml of prepared culture broth at 37° C. until the OD600 value reached 0.5 (about 4 hours). This E. coli culture broth was added to 200 ml of a culture broth as pre-culture broth followed by final culturing overnight at 25° C.
# After having been cultured overnight, the E. coli culture broth was centrifuged (1,000×g, 4° C., 10 minutes), the harvested bacterial cells were suspended in 20 ml of extract (composition: buffer solution (300 mM KCl, 50 mM KH2PO4, 5 mM imidazole) (pH 8.0), 10 μM amidinophenylmethanesulfonyl fluoride hydrochloride (APMSF)), and the E. coli were crushed by ultrasonic treatment followed by centrifuging (1,400×g, 4° C., 20 minutes) and recovering the supernatant. The supernatant was passed through a 0.45 μm filter and subjected to His-Tag purification using Profinia (Bio-Rad Corp.) in accordance with the manufacturer's recommended protocol. The resulting purified protein solution was centrifuged (7,500×g, 4° C., 15 minutes) using a centrifugal filter unit (Ultracel-10K, Amicon Ultra), and the concentrated protein solution was used as “NmGT-22 Protein Solution”. The Avanti HP-26XP centrifuge (rotor: JA-2, Beckman Coulter Inc.) was used for centrifugation.
# A reaction solution prepared by mixing 10 μl of protein solution, 2 it of 50 mM UDP-glucose, 10 μl of 1 M Tris-HCl (pH 7.5) and 1 μl of 2 mM apigenin 4′-glucoside (dissolved in 50% aqueous acetonitrile solution containing 0.1% TFA) on ice and bringing to reaction volume of 100 μl with water was held for 20 minutes at 30° C. Subsequently, 100 μl of stop buffer (90% aqueous acetonitrile solution containing 0.1% TFA) were added to stop the reaction followed by analyzing the reaction solution by high-performance liquid chromatography (Prominence, Shimadzu Corp.). Flavone was detected at 330 nm using the Shimadzu PDA SPD-M10AVP for the detector. The Shim-Pack ODS column (150 mm×4.6 mm, Shimadzu Corp.) was used for the column. A liquid A (0.1% aqueous TFA solution) and a liquid B (90% aqueous methanol solution containing 0.1% TFA) were used for elution. Elution was carried out for 10 minutes at a linear concentration gradient from an 8:2 mixture of the two solutions to a 3:7 mixture of the two solutions followed by eluting for 6 minutes using a 3:7 mixture of the two solutions. The flow rate was 0.6 ml/min.
row,SMILES,product synthesized by enzyme reaction
1,O=c1cc(-c2ccc(O[C@@H]3O[C@H](CO)[C@@H](O)[C@H](O)[C@H]3O)c(O)c2)oc2cc(O)cc(O)c12 [luteolin 4′-glucoside],"Luteolin 4′,7-diglucoside was synthesized"

# Same assay, conditions: NmGT22 protein solution, UDP-glucose, 1 μl of 2 mM substrate in 100 μl, 20 minutes at 30° C.
row,reaction rate (percentage of transformed substrate) [%],SMILES
1,77.16,"O=c1cc(-c2ccc(O)cc2)oc2cc(O)cc(O)c12 [apigenin, 4′,5,7-trihydroxyflavone]"
2,99.07,"O=c1cc(-c2ccc(O)c(O)c2)oc2cc(O)cc(O)c12 [luteolin, 3′,4′,5,7-tetrahydroxyflavone]"

# Further lines, the compound ahead of its results:
row,SMILES,reaction rate (percentage of transformed substrate) [%]
1,O=c1cc(-c2ccc(O[C@@H]3O[C@H](CO)[C@@H](O)[C@H](O)[C@H]3O)cc2)oc2cc(O)cc(O)c12 [apigenin 4′-glucoside],100
2,O=c1cc(-c2ccc(O)cc2)oc2cc(O[C@@H]3O[C@H](CO)[C@@H](O)[C@H](O)[C@H]3O)cc(O)c12 [apigenin 7-glucoside],2.69
3,O=c1cc(-c2ccc(O)c(O)c2)oc2cc(O[C@@H]3O[C@H](CO)[C@@H](O)[C@H](O)[C@H]3O)cc(O)c12 [luteolin 7-glucoside],16.10
